According to ChEMBL document CHEMBL1125246, “Configuration and preferential solid-state conformations of perindoprilat (S-9780). Comparison with the crystal structures of other ACE inhibitors and conclusions related to structure-activity relationships” (J Med Chem, 1991):
pIC50: −log10 of the molar value.

Molecular target: T1, Angiotensin-converting enzyme (Oryctolagus cuniculus, UniProt P12822)
T1 sequence (P12822 whole entry): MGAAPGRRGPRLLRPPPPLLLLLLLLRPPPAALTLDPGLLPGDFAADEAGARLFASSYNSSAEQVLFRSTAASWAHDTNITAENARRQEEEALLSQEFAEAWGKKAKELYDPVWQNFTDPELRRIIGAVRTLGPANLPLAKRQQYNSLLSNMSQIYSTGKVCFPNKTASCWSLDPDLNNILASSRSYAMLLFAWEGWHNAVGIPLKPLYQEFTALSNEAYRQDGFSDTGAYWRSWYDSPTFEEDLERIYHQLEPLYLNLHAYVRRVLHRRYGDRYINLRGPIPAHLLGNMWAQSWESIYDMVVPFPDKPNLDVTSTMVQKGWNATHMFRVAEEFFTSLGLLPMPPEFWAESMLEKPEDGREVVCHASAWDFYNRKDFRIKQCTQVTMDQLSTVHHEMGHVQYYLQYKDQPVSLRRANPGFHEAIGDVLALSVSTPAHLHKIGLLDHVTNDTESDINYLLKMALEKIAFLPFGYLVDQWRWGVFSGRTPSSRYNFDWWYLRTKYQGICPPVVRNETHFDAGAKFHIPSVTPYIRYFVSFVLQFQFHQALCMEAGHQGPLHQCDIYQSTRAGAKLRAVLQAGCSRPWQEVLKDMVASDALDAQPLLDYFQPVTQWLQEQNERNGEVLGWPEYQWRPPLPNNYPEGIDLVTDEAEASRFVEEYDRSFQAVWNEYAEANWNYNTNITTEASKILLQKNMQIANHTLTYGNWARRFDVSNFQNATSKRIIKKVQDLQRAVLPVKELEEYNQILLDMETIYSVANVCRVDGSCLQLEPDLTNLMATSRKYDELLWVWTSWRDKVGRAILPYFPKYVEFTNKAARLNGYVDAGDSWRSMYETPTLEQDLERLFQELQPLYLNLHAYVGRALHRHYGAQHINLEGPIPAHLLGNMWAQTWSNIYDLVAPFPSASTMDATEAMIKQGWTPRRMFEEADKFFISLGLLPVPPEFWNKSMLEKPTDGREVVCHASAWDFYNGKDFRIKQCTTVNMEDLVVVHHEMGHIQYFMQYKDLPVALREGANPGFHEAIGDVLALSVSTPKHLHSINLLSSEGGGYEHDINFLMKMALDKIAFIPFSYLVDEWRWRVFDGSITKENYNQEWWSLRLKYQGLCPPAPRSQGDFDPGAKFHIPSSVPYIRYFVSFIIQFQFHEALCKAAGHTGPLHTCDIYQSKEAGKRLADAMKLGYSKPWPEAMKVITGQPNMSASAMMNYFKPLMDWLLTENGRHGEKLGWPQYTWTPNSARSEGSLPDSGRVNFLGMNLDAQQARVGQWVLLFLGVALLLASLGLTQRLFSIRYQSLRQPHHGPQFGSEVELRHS
Experiment: In vitro activity against angiotensin I converting enzyme especially against Hip-His-Leu residues

pIC50 | Compound
5.96 | CCCC(N[C@H](C)C(=O)N1C(C(=O)O)CC2CCCCC21)C(=O)O (stereo not given in full)
8.82 | CCCC(N[C@@H](C)C(=O)N1C(C(=O)O)CC2CCCCC21)C(=O)O (stereo not given in full)

More lines, now with the values behind:

Compound | pIC50
CCC[C@H](NCC(=O)N1C2CCCCC2C[C@H]1C(=O)O)C(=O)O (stereo not given in full) | 8.72
O=C(O)C1CCCN1C(=O)CCS (stereo not given) | 6.70
O=C(O)[C@H](CCc1ccccc1)NCC(=O)N1CCC[C@H]1C(=O)O | 6.64
